According to the Deep4Chem optical property database:
Each block holds one compound with its values, some of them ahead of it.

Assay: photoluminescence quantum yield (fraction); solvent given as SMILES

photoluminescence quantum yield (in CC1CCCCC1): 0.0006
Structure (SMILES): c12c3c4c5c1c1c6c7c2c2c8c3c3c9c4c4c%10c5c5c1c1c6c6c%11c%12c%13c%14c%15c%16c%17c%14c%14c%18c%13c%11c1c1c5c%10c5c(c%14c%10c%17c%11c%13c%16c%14c%16c%15c%12c%12c%16c(c2c7c%126)c2c8c3c(c%13c%142)c2c9c4c5c%10c%112)c%181

photoluminescence quantum yield (in C1CCCCC1): 0.032
photoluminescence quantum yield (in C1COCCO1): 0.03
photoluminescence quantum yield (in CC#N): 0.02
photoluminescence quantum yield (in CN(C)C=O): 0.042
photoluminescence quantum yield (in CO): 0.034
photoluminescence quantum yield (in O): 0.027
photoluminescence quantum yield (in OCC(O)CO): 0.38
photoluminescence quantum yield (in OCCO): 0.108
Structure (SMILES): COc1cc(/C=C2/SC(=O)NC2=O)cc(OC)c1O

photoluminescence quantum yield (in CC#N): 0.98
Structure (SMILES): COc1ccc(-n2nc(C#N)c(N3CCCCCC3)n2)cc1

photoluminescence quantum yield (in ClCCl): 0.158
Structure (SMILES): c1ccc(-n2nc(-c3ccc(-c4ccc5c(c4)C(c4ccccc4)(c4ccccc4)c4ccccc4-5)cc3)nc2-c2ccccn2)cc1

photoluminescence quantum yield (in ClC(Cl)Cl): 0.44
Structure (SMILES): CN(C)c1ccc(-c2cc(-c3ccc(C#N)cc3)nc(-c3ccccc3)n2)cc1

photoluminescence quantum yield (in C1CCOC1): 0.045
Structure (SMILES): COc1ccc(C(=Cc2ccc(/C=C(\C#N)c3ccc([N+](=O)[O-])cc3)cc2)c2ccc(OC)cc2)cc1

photoluminescence quantum yield (in C1CCOC1): 0.004
photoluminescence quantum yield (in CC#N): 0.0016
photoluminescence quantum yield (in CS(C)=O): 0.0021
photoluminescence quantum yield (in ClC(Cl)Cl): 0.023
Structure (SMILES): COc1cccc2cc(-c3ccc([N+](=O)[O-])cc3)c(=N)oc12

photoluminescence quantum yield (in ClCCl): 0.77
Structure (SMILES): C[Si]1(C)c2cc(-c3cccs3)ccc2C=Cc2ccc(-c3cccs3)cc21

photoluminescence quantum yield (in CS(C)=O): 0.2
Structure (SMILES): Cc1cccn2c1cc1c3ccccc3nc(-c3cccs3)c12

photoluminescence quantum yield (in CC#N): 0.58
photoluminescence quantum yield (in ClCCl): 0.73
Structure (SMILES): O=c1c2cc(I)ccc2nc2n1[B-](F)(F)[n+]1ccccc1-2

photoluminescence quantum yield (in CC#N): 0.78
photoluminescence quantum yield (in ClCCl): 0.99
Structure (SMILES): O=c1c2ccccc2nc2n1[B-](F)(F)[n+]1ccccc1-2

photoluminescence quantum yield (in O): 0.29
Structure (SMILES): COc1ccc(C2=C3C=CC(=[N+](C)C)C=C3[Si](C)(C)c3cc(N(C)C)ccc32)c(C)c1

photoluminescence quantum yield (in O): 0.3
Structure (SMILES): N#Cc1c(N2CCCCC2)cc(-c2cccs2)c2c1-c1cccc3cccc-2c13

photoluminescence quantum yield (in ClCCl): 0.75
Structure (SMILES): CCOC(=O)COc1ccc(/C=C/C2=[N+]3C(=Cc4c5ccccc5c(-c5[nH]c(C)cc5C)n4[B-]3(F)F)C(C)=C2)cc1

photoluminescence quantum yield (in ClCCl): 0.0641
Structure (SMILES): CC1=C(Br)C(C)=[N+]2C1=C(c1c(-c3ccccn3)nc3ccccn13)c1c(C)c(Br)c(C)n1[B-]2(F)F

photoluminescence quantum yield (in C1COCCO1): 0.18
photoluminescence quantum yield (in ClCCl): 0.01
Structure (SMILES): CCCCN(CCCC)c1ccc(/C=C/c2ccc3nc(/C=C/c4nc5ccc(/C=C/c6ccc(N(CCCC)CCCC)cc6)cc5n(CCC)c4=O)c(=O)n(CCC)c3c2)cc1

photoluminescence quantum yield (in CCO): 0.18
photoluminescence quantum yield (in ClC(Cl)Cl): 0.22
photoluminescence quantum yield (in ClCCl): 0.31
Structure (SMILES): CCN(CC)c1ccc2cc3c([o+]c2c1)/C(=C/Nc1ccccc1)CCC3

photoluminescence quantum yield (in ClCCl): 0.00019
Structure (SMILES): COc1cc2c(cc1OC)C1=C[C@H](c3ccc(Cl)cc3)C3(C(C#N)=C(C#N)N1CC2)c1cc(Br)ccc1-c1ccc(Br)cc13

photoluminescence quantum yield (in CS(C)=O): 0.14
Structure (SMILES): Cc1ccc(N/C=C/C=[NH+]c2ccc(C)cc2)cc1

photoluminescence quantum yield (in C1CCCCC1): 0.45
photoluminescence quantum yield (in CCOC(C)=O): 0.11
Structure (SMILES): CC1=[N+]2C(=C(Oc3cc(C)c4c(c3)CC[C@@](C)(CCC[C@H](C)CCC[C@H](C)CCCC(C)C)O4)c3ccc(C)n3[B-]2(F)F)C=C1c1cc2n(c1)[B-](F)(F)[N+]1=CC=CC1=C2c1c(C)cc(C)cc1C

More lines, now with the values behind:

Structure (SMILES): CC(C)(C)c1ccc(C(C)(C)C)c(N2C(=O)c3cccc4c(-c5ccc(-c6ccccc6)s5)ccc(c34)C2=O)c1
photoluminescence quantum yield (in CO): 0.34
photoluminescence quantum yield (in CS(C)=O): 0.43
photoluminescence quantum yield (in Cc1ccccc1): 0.06

Structure (SMILES): CC(C)[Si](C#Cc1c2cc3ccccc3cc2c(C#C[Si](C(C)C)(C(C)C)C(C)C)c2nc3c(ccc4cc5ccccc5cc43)nc12)(C(C)C)C(C)C
photoluminescence quantum yield (in CCCCCC): 0.26

Structure (SMILES): F[B-]1(F)n2c(Cl)c(Cl)c(Br)c2C(Oc2ccccc2)=C2C(Br)=C(Cl)C(Cl)=[N+]21
photoluminescence quantum yield (in ClCCl): 0.05

Structure (SMILES): CC(C)(C)c1ccc2c(c1)c1cc(C(C)(C)C)ccc1n2-c1ccc(C#Cc2ccc(C#Cc3ccc(-n4c5ccc(C(C)(C)C)cc5c5cc(C(C)(C)C)ccc54)cc3)cc2)cc1
photoluminescence quantum yield (in CC#N): 0.67
photoluminescence quantum yield (in CCCCC): 0.89
photoluminescence quantum yield (in CO): 0.41
photoluminescence quantum yield (in Cc1ccccc1): 0.86
photoluminescence quantum yield (in ClC(Cl)Cl): 0.69
photoluminescence quantum yield (in ClCCl): 0.89

Structure (SMILES): COC(=O)C(NC(=O)OC(C)(C)C)c1ccc2oc(-c3ccc(OC(=O)c4ccccc4)cc3O)nc2c1 (stereo not given)
photoluminescence quantum yield (in CC1CCCCC1): 0.03
photoluminescence quantum yield (in CC#N): 0.01
photoluminescence quantum yield (in CO): 0.003

Structure (SMILES): COc1cc(OC)cc(C2=C3C(C)=C(I)C(C)=[N+]3[B-](F)(F)n3c(/C=C/c4c[nH]c5ccc([N+](=O)[O-])cc45)c(I)c(C)c32)c1
photoluminescence quantum yield (in C1CCOC1): 0.32
photoluminescence quantum yield (in CS(C)=O): 0.19
photoluminescence quantum yield (in ClCCl): 0.37

Structure (SMILES): CCCCCCn1c2ccccc2c2cc3c4cc5c6ccccc6n(CCCCCC)c5cc4c4cc5c(C)cc(=O)oc5cc4c3cc21
photoluminescence quantum yield (in ClC(Cl)Cl): 0.12

Structure (SMILES): C=Cc1cc2ccccc2oc1=O
photoluminescence quantum yield (in CC#N): 0.08

Structure (SMILES): N#Cc1c(-n2c3ccc(Br)cc3c3cc(Br)ccc32)c(-n2c3ccc(Br)cc3c3cc(Br)ccc32)c(C#N)c(-n2c3ccc(Br)cc3c3cc(Br)ccc32)c1-n1c2ccc(Br)cc2c2cc(Br)ccc21
photoluminescence quantum yield (in Cc1ccccc1): 0.45

Structure (SMILES): COc1ccc(/C=C/c2nc(/C=C/c3ccc(N(C)C)cc3)cc(/C=C/c3ccc(N(c4ccccc4)c4ccccc4)cc3)n2)cc1
photoluminescence quantum yield (in ClCCl): 0.68

Structure (SMILES): N#Cc1c2oc3ccccc3oc2c(C#N)c2oc3ccccc3oc12
photoluminescence quantum yield (in ClC(Cl)Cl): 0.78

Structure (SMILES): COc1ccc(-c2c3ccccc3c(C#Cc3ccccc3)c3cc4ccccc4cc23)cc1
photoluminescence quantum yield (in ClCCl): 0.6

Structure (SMILES): CN1/C(=C/C=C(/C=C/C2=[N+](C)c3ccccc3C2(C)C)c2cccc(C(F)(F)F)c2)C(C)(C)c2ccccc21
photoluminescence quantum yield (in CCO): 0.11
photoluminescence quantum yield (in CS(C)=O): 0.16

Structure (SMILES): CN(C)CCN(Cc1c2ccccc2cc2ccccc12)c1ccc([N+](=O)[O-])cc1[N+](=O)[O-]
photoluminescence quantum yield (in C1CCCCC1): 0.0001
photoluminescence quantum yield (in C1CCOC1): 0.0004
photoluminescence quantum yield (in CC#N): 0.0185
photoluminescence quantum yield (in CC(C)=O): 0.0043
photoluminescence quantum yield (in CCO): 0.0087
photoluminescence quantum yield (in CN(C)C=O): 0.0293
photoluminescence quantum yield (in CO): 0.0093
photoluminescence quantum yield (in CS(C)=O): 0.0426
photoluminescence quantum yield (in ClC(Cl)Cl): 0.0009
photoluminescence quantum yield (in ClCCl): 0.0057

Structure (SMILES): COC(=O)c1ccc(C2=C3C=CC(C)=[N+]3[B-](F)(F)n3c(C)ccc32)cc1
photoluminescence quantum yield (in C1CCCCC1): 0.073
photoluminescence quantum yield (in C1CCOC1): 0.056
photoluminescence quantum yield (in CC#N): 0.039
photoluminescence quantum yield (in CCOC(C)=O): 0.053
photoluminescence quantum yield (in CO): 0.032
photoluminescence quantum yield (in Cc1ccccc1): 0.12
photoluminescence quantum yield (in ClC(Cl)Cl): 0.095

Structure (SMILES): CC1=C(C(C)(C)C)C(C)=[N+]2C1=C(C)c1c(C)c(C(C)(C)C)c(C)n1[B-]2(F)F
photoluminescence quantum yield (in C1CCCCC1): 0.32
photoluminescence quantum yield (in C1CCOC1): 0.37
photoluminescence quantum yield (in C1COCCO1): 0.4
photoluminescence quantum yield (in CC#N): 0.44
photoluminescence quantum yield (in CC(C)=O): 0.44
photoluminescence quantum yield (in CC(C)CC(C)(C)C): 0.4
photoluminescence quantum yield (in CCC(C)C): 0.4
photoluminescence quantum yield (in CCCC(C)=O): 0.46
photoluminescence quantum yield (in CCCCCC): 0.43
photoluminescence quantum yield (in CCCCCCCCO): 0.41
photoluminescence quantum yield (in CCCCCCO): 0.42
photoluminescence quantum yield (in CCCCO): 0.39
photoluminescence quantum yield (in CCCCOC(C)=O): 0.43
photoluminescence quantum yield (in CCCO): 0.39
photoluminescence quantum yield (in CCO): 0.43
photoluminescence quantum yield (in CCOC(C)=O): 0.44
photoluminescence quantum yield (in CCOCC): 0.43
photoluminescence quantum yield (in CN(C)C=O): 0.35
photoluminescence quantum yield (in CNC=O): 0.47
photoluminescence quantum yield (in CO): 0.48
photoluminescence quantum yield (in COC(C)=O): 0.48
photoluminescence quantum yield (in OCC(F)(F)F): 0.49

Structure (SMILES): Cc1ccccc1-c1ccccc1C
photoluminescence quantum yield (in C1CCCCC1): 0.01

Structure (SMILES): C[n+]1ccc(-c2cc[n+](C)cc2)cc1
photoluminescence quantum yield (in CC#N): 0.02

Structure (SMILES): C(=C\c1ccc(/C=C/c2c3ccccc3cc3ccccc23)cc1)/c1ccncc1
photoluminescence quantum yield (in C1CCOC1): 0.34

Structure (SMILES): CCCCCCN1C(=O)c2cccc3c(-c4ccc(-c5cc(-c6ccc(Cl)cc6)n(-c6ccccc6)n5)s4)ccc(c23)C1=O
photoluminescence quantum yield (in ClCCl): 0.33

Structure (SMILES): c1ccc(-c2nc(-c3ccccc3)nc(-c3ccc(N4c5ccccc5C5(c6ccccc6-c6ccccc65)c5ccccc54)cc3)n2)cc1
photoluminescence quantum yield (in O=P(c1ccccc1)(c1ccccc1)c1ccccc1Oc1ccccc1P(=O)(c1ccccc1)c1ccccc1): 0.801

Structure (SMILES): CN1c2cc3nc4cc(Cl)c(Cl)cc4nc3cc2N(C)C1(C)C
photoluminescence quantum yield (in CCO): 0.7

Structure (SMILES): CCN(CC)c1ccc2cc(-c3csc(N)c3C#N)c(=O)oc2c1
photoluminescence quantum yield (in C1CCOC1): 0.62
photoluminescence quantum yield (in CO): 0.02
photoluminescence quantum yield (in CS(C)=O): 0.04
photoluminescence quantum yield (in Cc1ccccc1): 0.74
photoluminescence quantum yield (in ClCCl): 0.6

Structure (SMILES): Nc1ccc2c(c1)C(=O)N(C13C[C@H]4C[C@@H](C1)C[C@@H](C3)C4)C2=O
photoluminescence quantum yield (in C1CCCCC1): 0.38
photoluminescence quantum yield (in C1CCOC1): 0.59
photoluminescence quantum yield (in CC#N): 0.62
photoluminescence quantum yield (in CCOC(C)=O): 0.58
photoluminescence quantum yield (in CO): 0.17
photoluminescence quantum yield (in CS(C)=O): 0.8
photoluminescence quantum yield (in Cc1ccccc1): 0.8
photoluminescence quantum yield (in ClCCl): 0.85

Structure (SMILES): CN(C)c1ccc(/C=C/c2cnc(-c3ccncc3)o2)cc1
photoluminescence quantum yield (in ClCCl): 0.65

Structure (SMILES): CCOC(=O)c1ccc(C2=CC3=c4cc(-c5ccc(C(=O)OCC)cc5)c5nc(C(F)(F)C(F)(F)C(F)(F)F)nc6c(-c7ccc(C(=O)OCC)cc7)cc(c4c65)C4=CC(c5ccc(C(=O)OCC)cc5)=C5N=C(C(F)(F)C(F)(F)C(F)(F)F)N=C2C5C43)cc1 (stereo not given)
photoluminescence quantum yield (in C1CCOC1): 0.79

Structure (SMILES): c1ccc(C2=C(c3ccccc3)c3cccc4c3c(cc3nc5cc(-c6ccccc6)c(-c6ccccc6)cc5nc34)O2)cc1
photoluminescence quantum yield (in ClCCl): 0.86

Structure (SMILES): CCCCCCCCCCCn1cccc1C1=[N+]2C(=Cc3c(C)cc(C)n3[B-]2(F)F)c2ccccc21
photoluminescence quantum yield (in C1CCOC1): 0.98
photoluminescence quantum yield (in CC#N): 0.99
photoluminescence quantum yield (in CCCCCC): 0.99
photoluminescence quantum yield (in CO): 0.96
photoluminescence quantum yield (in Cc1ccccc1): 0.99
photoluminescence quantum yield (in ClCCl): 0.99

Structure (SMILES): C(#Cc1nccnc1C#Cc1ccccc1)c1ccccc1
photoluminescence quantum yield (in CC#N): 0.07

Structure (SMILES): C=CC1CN2CCC1CC2[C@H](O)c1ccnc2ccc(OC)cc12 (stereo not given in full)
photoluminescence quantum yield (in O): 0.546
